Data published in patent US9024018B2, “3-substituted-8-substituted-3H-imidazo[5,1-d][1,2,3,5]tetrazin-4-one compounds and their use” (Pharminox Limited, priority 2009, dated 2015).

Columns and labels:
Format in all cases: cell-based
[1] = test system: SNB19V; test: MTT assay for 7-day toxicity, SNB19V glioma cells (vector control, MGMT-); settings: Glioma cell, 168 h, 7 day MTT assay, glioma line SNB19V
Protocol: (§1) The cell culture techniques were carried out in a Class II microbiological safety cabinet which was swabbed with 70% IMS in distilled water before each use. Glioma cells were routinely cultured in Costar tissue culture flasks in RPMI 1640 liquid medium (containing 0.3 g/L L-glutamine and 2 g/L sodium bicarbonate) supplemented with 10% heat inactivated FBS (55-59° C.) for 1 hour to denature complement proteins which would otherwise evoke a cellular immune response resulting in cell lysis, 1% non-essential amino acids, 50 μg/mL gentamicin and 400 μg/mL G418 (vector selection reagent). Colorectal and melanoma cells were maintained in RPMI 1640 supplemented with 10% FBS. MRC-5 cells were cultured in EMEM+10% FBS, 1% pen/strep, 1% non-essential amino acids, 1% HEPES (1M) and 1% sodium bicarbonate.
(§2) Cells were grown at 37° C. in a humidified incubator in an atmosphere comprising 95% air/5% CO2. Cells were sub-cultured when growth exceeded approximately 80% confluence, normally twice weekly. The medium was aspirated from the flask and approximately 0.8 mL trypsin-EDTA 1× solution added. The cells were re-incubated at 37° C. until they had visibly detached from the flask. The cells were re-suspended in 5 mL medium and 0.5-1 mL was transferred to a new flask (25 cm^2) with 7 mL culture medium. The cells were further incubated at 37° C. To minimize phenotypic drift, cells were disposed of once they had been subcultured 30 times. New batches of cells were thawed rapidly in 37° C. water bath once taken from liquid nitrogen storage and re-suspended in 10 mL of culture medium in a 25 cm^2 flask. Cells were passaged twice to allow normal growth to resume prior to use in experiments.
(§3) Most test compounds, including temozolomide, were prepared as 100 mM stock solutions in DMSO and stored at −20° C. for not more than 6 months.
(§4) MTT Assay for 7-Day Toxicity Assay
(§5) This assay was first described in Mosmann, T., 1983, “Rapid colorimetric assay for cellular growth and survival: Application to proliferation and cytotoxicity assays”, Journal of Immunological Methods, Vol. 65, Nos. 1-2, pp. 55-63.
(§6) Glioma cell lines, SNB19 and U373, both stably transfected with MGMT (i.e., SNB19M and U373M) or their respective vector controls (i.e., SNB19V and U373V); colorectal carcinoma cell lines, HCT116, HT29, and DLD1; melanoma cell line, SKMEL-28; breast cell line, MCF-7; and normal human fetal lung fibroblast cell line, MRC-5; were used at 60-80% confluence, during the logarithmic phase of growth.
(§7) Following harvesting with trypsin/EDTA, cells in suspension were gently syringed through a 23 gauge needle to obtain a near-single cell suspension. Cells were then seeded into 96-well plates at the desired density in 180 μL culture medium if only one test compound was to be added, or in 160 μL if two test compounds were to be added in combination. Cells were allowed to attach overnight by incubation at 37° C. in 95% air/5% CO2. For the 7 day assay, the cell seeding densities for the different cell lines were as follows: SNB19V, SNB19M: 650 cells/well; U373V, U373M: 650 cells/well; SNB19VR, U373VR: 650 cells/well; HCT116, DLD-1, SKMEL-28, MRC-5, MCF-7: 400 cells/well.
(§8) The two peripheral lanes of each plate were used as blank wells (cell free) and filled with 200 μL of medium in order to minimise medium evaporation from the plate. A separate time zero (T0) plate was set up alongside other plates. Serial dilutions in tissue culture medium of a 100 mM stock of test compound were prepared immediately before each assay to ten times the final concentrations required. 20 μL was added to each well (200 μL total media per well) to achieve final concentrations of 0.5 μM, 1 μM, 5 μM, 10 μM, 50 μM, 100 μM, 500 μM, and 1000 μM. A minimum of four wells received the same test compound concentration. To control wells, including those in the T0 plate, 20 μL of medium was added. […]

[2] = test system: U373V; test: MTT assay for 7-day toxicity, U373V glioma cells (vector control, MGMT-); settings: Glioma cell, 168 h, 7 day MTT assay, glioma line U373V
Protocol: as §1, §2, §3, §4, §5, §6, §7, §8

[3] = test system: SNB19M; test: MTT assay for 7-day toxicity, SNB19M glioma cells (stably transfected with MGMT, MGMT+); settings: Glioma cell, 168 h, 7 day MTT assay, glioma line SNB19M
Protocol: as §1, §2, §3, §4, §5, §6, §7, §8

[4] = test system: U373M; test: MTT assay for 7-day toxicity, U373M glioma cells (stably transfected with MGMT, MGMT+); settings: 7 day MTT assay, glioma line U373M
Protocol: as §1, §2, §3, §4, §5, §6, §7, §8

SMILES	GI50 [1]	GI50 [2]	GI50 [3]	GI50 ([4]; Glioma cell, 168 h)	GI50 [4]
Cn1nnc2c(-c3nc4ccccc4o3)ncn2c1=O [WW-054, 8-(Benzo[d]oxazol-2-yl)-3-methylimidazo[5,1-d][1,2,3,5]tetrazin-4(3H)-one]	< 45 µM	< 75 µM	–	–	–
C#CCn1nnc2c(-c3nc(-c4ccc(Br)cc4)cs3)ncn2c1=O [WW-021]	–	< 75 µM	< 70 µM	< 60 µM	–
COCn1nnc2c(-c3nc4ccccc4s3)ncn2c1=O [WW-060, 8-(Benzo[d]thiazol-2-yl)-3-(methoxymethyl)imidazo[5,1-d][1,2,3,5]tetrazin-4(3H)-one]	< 45 µM	–	< 70 µM	–	–
COCn1nnc2c(-c3nnc(NCc4ccccc4)o3)ncn2c1=O [WW-046, 8-(5-(Benzylamino)-1,3,4-oxadiazol-2-yl)-3-(methoxymethyl)imidazo[5,1-d][1,2,3,5]tetrazin-4(3H)-one]	–	< 75 µM	< 70 µM	< 60 µM	–
CSCn1nnc2c(-c3nc(-c4ccsc4)cs3)ncn2c1=O [WW-035, 3-(methylthiomethyl)-8-(4-(thiophen-3-yl)thiazol-2-1/1)imidazo[5,1-d][1,2,3,5]tetrazin-4(3H)-one]	–	< 75 µM	< 70 µM	< 60 µM	–
C#CCn1nnc2c(-c3nc(C(C)(C)C)cs3)ncn2c1=O [WW-020, 8-(4-tert-Butylthiazol-2-yl)-3-(prop-2-ynyl)imidazo[5,1-d][1,2,3,5]tetrazin-4(3H)-one]	–	–	< 70 µM	–	–
Cn1nnc2c(-c3nc4ccccc4n3C)ncn2c1=O [WW-066, 3-Methyl-8-(1-methyl-1H-benzo[d]imidazol-2-yl)imidazo[5,1-d][1,2,3,5]tetrazin-4(3H)-one]	< 45 µM	–	< 70 µM	–	–
COCn1nnc2c(-c3nc4ccccc4[nH]3)ncn2c1=O [WW-064, 8-(1H-Benzo[d]imidazol-2-yl)-3-(methoxymethyl)imidazo[5,1-d][1,2,3,5]tetrazin-4(3H)-one]	< 45 µM	–	< 70 µM	–	–
C[S+]([O-])Cn1nnc2c(-c3nc4ccccc4s3)ncn2c1=O (centres unmarked) [WW-061, 8-(Benzo[d]thiazol-2-yl)-3-(methylsulfinylmethyl)imidazo[5,1-d][1,2,3,5]tetrazin-4(3H)-one]	< 45 µM	–	< 70 µM	–	–
Cn1nnc2c(-c3nc(-c4ccc(Br)cc4)cs3)ncn2c1=O [WW-022, 8-(4-(4-Bromophenyl)thiazol-2-yl)-3-methylimidazo[5,1-d][1,2,3,5]tetrazin-4(3H)-one]	< 45 µM	–	< 70 µM	–	–
Cn1nnc2c(-c3nc(-c4ccncc4)cs3)ncn2c1=O [WW-013]	–	< 75 µM	< 70 µM	< 60 µM	–
COCn1nnc2c(-c3nc4ccccc4o3)ncn2c1=O [WW-057]	–	–	< 70 µM	–	–
COCn1nnc2c(-c3nc(-c4cccs4)cs3)ncn2c1=O [WW-018, 3-(Methoxymethyl)-8-(4-(thiophen-2-yl)thiazol-2-yl)imidazo[5,1-d][1,2,3, 5]tetrazin-4(3H)-one]	< 45 µM	–	< 70 µM	–	–
C#CCn1nnc2c(-c3nc4ccccc4n3C)ncn2c1=O [WW-065, 8-(1-Methyl-1H-benzo[d]imidazol-2-yl)-3-(prop-2-ynyl)imidazo[5,1-d][1,2,3,5]tetrazin-4(3H)-one]	< 45 µM	–	< 70 µM	–	–
CSCn1nnc2c(-c3nc(-c4cccs4)cs3)ncn2c1=O [WW-034, 3-(methylthiomethyl)-8-(4-(thiophen-2-yl)thiazol-2-yl)imidazo[5,1-d][1,2,3,5]tetrazin-4(3H)-one]	–	< 75 µM	< 70 µM	< 60 µM	–
COCn1nnc2c(-c3ncc(-c4ccc(Br)cc4)o3)ncn2c1=O [WW-039]	–	< 75 µM	< 70 µM	< 60 µM	–

SMILES	GI50 [1]	GI50 [2]	GI50 [3]	GI50 ([4]; Glioma cell, 168 h)	GI50 [4]
COCn1nnc2c(-c3nc(-c4ccc5c(c4)OCO5)cs3)ncn2c1=O [WW-032]	–	< 75 µM	< 70 µM	< 60 µM	–
C#CCn1nnc2c(-c3nc4ccccc4s3)ncn2c1=O [WW-059, 8-(Benzo[d]thiazol-2-yl)-3-(prop-2-ynyl)imidazo[5,1-d][1,2,3, 5]tetrazin-4(3H)-one]	< 45 µM	–	< 70 µM	–	–
Cn1nnc2c(C(=O)NO)ncn2c1=O [RR-001, N-Hydroxy-3-methyl-4-oxo-3,4-dihydroimidazo[5,1-d][1,2,3,5]tetrazine-8-carboxamide]	41 µM	–	87.1 µM	–	–
Cn1nnc2c(-c3nnc(-c4ccccc4)o3)ncn2c1=O [WW-041, 3-Methyl-8-(5-phenyl-1,3,4-oxadiazol-2-yl)imidazo[5,1-d][1,2,3,5]tetrazin-4(3H)-one]	< 45 µM	< 75 µM	–	–	–
COCn1nnc2c(-c3nc(C(C)(C)C)cs3)ncn2c1=O [WW-014, 8-(4-tert-Butylthiazol-2-yl)-3-(methoxymethyl)imidazo[5,1-d][1,2,3,5]tetrazin-4(3H)-one]	–	< 75 µM	< 70 µM	< 60 µM	–
CNc1nnc(-c2ncn3c(=O)n(C)nnc23)o1 [WW-045, 3-Methyl-8-(5-(methylamino)-1,3,4-oxadiazol-2-yl)imidazo[5,1-d][1,2,3,5]tetrazin-4(3H)-one]	< 45 µM	< 75 µM	–	–	–
Cn1nnc2c(-c3nc(-c4nccs4)cs3)ncn2c1=O [WW-010, 8-(2,4′-Bithiazol-2′-yl)-3-methylimidazo[5,1-d][1,2,3,5]tetrazin-4(3H)-one]	< 45 µM	–	< 70 µM	–	–
COCn1nnc2c(-c3nc(-c4ccncc4)cs3)ncn2c1=O [WW-019, 3-(Methoxymethyl)-8-(4-(pyridin-4-yl)thiazol-2-yl)imidazo[5,1-d][1,2,3,5]tetrazin-4(3H)-one]	< 45 µM	–	< 70 µM	–	–
C[S+]([O-])Cn1nnc2c(-c3nc4ccccc4o3)ncn2c1=O (centres unmarked) [WW-056, 8-(Benzo[d]oxazol-2-yl)-3-(methylsulfinylmethyl)imidazo[5,1-d][1,2,3,5]tetrazin-4(3H)-one]	< 45 µM	–	< 70 µM	–	–
COCn1nnc2c(-c3nc(-c4ccc(S(C)(=O)=O)cc4)cs3)ncn2c1=O [WW-027, 3-(Methoxymethyl)-8-(4-(4-(methylsulfonyl)phenyl)thiazol-2-yl)imidazo[5,1-d][1,2,3,5]tetrazin-4(3H)-one]	–	–	–	< 60 µM	33.1 µM
Cn1nnc2c(-c3nnc(Nc4ccccc4)o3)ncn2c1=O [WW-044, 3-Methyl-8-(5-(phenylamino)-1,3,4-oxadiazol-2-yl)imidazo[5,1-d][1,2,3,5]tetrazin-4(3H)-one]	–	< 75 µM	–	–	–
C#CCn1nnc2c(-c3nc(-c4cccs4)cn3C)ncn2c1=O [WW-053, 8-(1-Methyl-4-(thiophen-2-yl)-1H-imidazol-2-yl)-3-(prop-2-ynyl)imidazo[5,1-d][1,2,3,5]tetrazin-4(3H)-one]	< 45 µM	–	< 70 µM	–	–
COCn1nnc2c(-c3nc(-c4ccsc4)cs3)ncn2c1=O [WW-017]	< 45 µM	–	< 70 µM	–	–
C[S+]([O-])Cn1nnc2c(-c3nnc(-c4ccccc4)o3)ncn2c1=O (centres unmarked) [WW-043, 3-(Methylsulfinylmethyl)-8-(5-phenyl-1,3,4-oxadiazol-2-yl)imidazo[5,1-d][1,2,3,5]tetrazin-4(3H)-one]	< 45 µM	–	< 70 µM	–	–
Cn1nnc2c(-c3nc(-c4cccs4)cs3)ncn2c1=O [WW-011, 3-Methyl-8-(4-(thiophen-2-yl)thiazol-2-yl)imidazo[5,1-d][1,2,3,5]tetrazin-4(3H)-one]	< 45 µM	< 75 µM	< 70 µM	–	–
